In this assay the test system is drug-induced asthma in guinea pig. Description: Asthmatic latent period / drug-induced asthma in guinea pig (acetylcholine + histamine inhalation). It is filed as in vivo. The procedure:
Sensitive animals were chosen by aerosolized inhalation of asthma-inducing agents—a mixed solution of 2% acetylcholine with 0.1% histamine for 15 sec., inducing an asthmatic attack with severe difficulty in respiration and finally resulting in the animal body turned down. The time from beginning of the inhalation to animal turned down was recorded as an index named “turned down time” or asthmatic latent period. Those animals with turned down time less than 120 s. were selected for the study next day. […] Then the latent period was recorded for each of the animals.
(1) Screening animals: animal was put in a glass container, a mixed solution of 2% acetylcholine and 0.1% histamine was nebulized with a pressure of 400 mmHg and inhaled by the animals for 15 sec. Following the end of the inhalation, the time between beginning of the inhalation and the animal turned down due to bronchial spasm and dyspnea was recorded as asthmatic latent period. Those animals with a latent period beyond 120 s. were excluded, and those with a latent period less than 120 s were selected for study the next day.
(4) Measuring: Repeat the inhalation at 30 min, 4 h, and 24 h after administration of the drugs respectively. Asthmatic latent period was recorded, 6 minutes were taken as the maximum, and values beyond 6 min were counted as 6 min.
(5) Data analysis: Values were expressed as mean±sd, and paired for “t” and chi-square tests. Significance was considered to be established when p<0.05.

The mark [1] stands for this setting: 10 ml/kg I.P. (BDM 0.2M, aminophylline 1.25%), mean±sd.

Turning to `CC(=O)C(C)=NO` [BDM, 2,3-butanedione monoxime], under setting [1], the “Asthamatic Latent Period, 4 hours after administration” value was 99.2 ± 42.1 s and the “Asthamatic Latent Period, 24 hours after administration” value was found to be 81.8 ± 11.0 s. Besides, the “Incidence of asthmatic spasm” value (30 min after administration, down from 100%, not significant) is given as 60%. Moreover, the “Asthamatic Latent Period, before administration” value (baseline before drug, 10 ml/kg I.P. (BDM 0.2M, aminophylline 1.25%), mean±sd) amounted to 70.4 ± 21.1 s. The “Effect on the latent period” value (four and 24 h after administration) is reported as “no significant effect”.
